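Protocol summary: plate cells (96-well), add compound at 5 concentrations, incubate 48 h, interpolate endpoints linearly. GI50 marks 50% less growth. The concentration for full growth arrest is given as TGI.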
Assays:
Assay in all cases: NCI-60 cell line screen, 48 h
UACC-62 melanoma = test system: UACC-62 melanoma
EKVX NSCLC = test system: EKVX NSCLC
MDA-MB-231 breast = test system: MDA-MB-231 breast
A549 NSCLC = test system: A549 NSCLC
OVCAR-4 ovarian = test system: OVCAR-4 ovarian
HOP-92 NSCLC = test system: HOP-92 NSCLC
NCI-H23 lung = test system: NCI-H23 lung
SR leukemia = test system: SR leukemia
SN12C renal = test system: SN12C renal
SF-268 CNS = test system: SF-268 CNS
SNB-19 CNS = test system: SNB-19 CNS
IGROV1 ovarian = test system: IGROV1 ovarian
HCT-116 colon = test system: HCT-116 colon
PC-3 prostate = test system: PC-3 prostate
KM12 colon = test system: KM12 colon
LOX IMVI melanoma = test system: LOX IMVI melanoma
HOP-62 NSCLC = test system: HOP-62 NSCLC
RXF 393 renal = test system: RXF 393 renal
SNB-75 CNS = test system: SNB-75 CNS
SK-MEL-28 melanoma = test system: SK-MEL-28 melanoma
ACHN renal = test system: ACHN renal
SK-MEL-2 melanoma = test system: SK-MEL-2 melanoma
HCT-15 colon = test system: HCT-15 colon
HL-60(TB) leukemia = test system: HL-60(TB) leukemia
SF-295 CNS = test system: SF-295 CNS
NCI-H522 lung = test system: NCI-H522 lung
UACC-257 melanoma = test system: UACC-257 melanoma
RPMI-8226 leukemia = test system: RPMI-8226 leukemia
786-0 renal = test system: 786-0 renal
OVCAR-5 ovarian = test system: OVCAR-5 ovarian
HT29 colon = test system: HT29 colon
A498 renal = test system: A498 renal
UO-31 renal = test system: UO-31 renal
M14 melanoma = test system: M14 melanoma
DU-145 prostate = test system: DU-145 prostate
NCI-H460 lung = test system: NCI-H460 lung
TK-10 renal = test system: TK-10 renal
SK-OV-3 ovarian = test system: SK-OV-3 ovarian
MOLT-4 leukemia = test system: MOLT-4 leukemia
OVCAR-8 ovarian = test system: OVCAR-8 ovarian
CAKI-1 renal = test system: CAKI-1 renal
COLO 205 colon = test system: COLO 205 colon
CCRF-CEM leukemia = test system: CCRF-CEM leukemia
K-562 leukemia = test system: K-562 leukemia
T-47D breast = test system: T-47D breast
NCI/ADR-RES ovarian = test system: NCI/ADR-RES ovarian
SK-MEL-5 melanoma = test system: SK-MEL-5 melanoma
HCC-2998 colon = test system: HCC-2998 colon
BT-549 breast = test system: BT-549 breast
SW-620 colon = test system: SW-620 colon
MDA-MB-435 = test system: MDA-MB-435
MALME-3M melanoma = test system: MALME-3M melanoma
U251 CNS = test system: U251 CNS
SF-539 CNS = test system: SF-539 CNS

CCc1cc(OC(=O)N2CCC(N3CCCCC3)CC2)ccc1Nc1cc(-c2ccc(-n3cccn3)cc2)[nH]n1
GI50 (UACC-62 melanoma): 1.92 µM
TGI (UACC-62 melanoma): 3.96 µM
GI50 (EKVX NSCLC): 2.16 µM
TGI (EKVX NSCLC): 5.86 µM
GI50 (MDA-MB-231 breast): 1.9 µM
TGI (MDA-MB-231 breast): 3.57 µM
GI50 (A549 NSCLC): 1.21 µM
TGI (A549 NSCLC): 2.66 µM
GI50 (OVCAR-4 ovarian): 2.22 µM
TGI (OVCAR-4 ovarian): 5.34 µM
GI50 (HOP-92 NSCLC): 1.45 µM
TGI (HOP-92 NSCLC): 3.23 µM
GI50 (NCI-H23 lung): 1.82 µM
TGI (NCI-H23 lung): 3.9 µM
GI50 (SR leukemia): 1.49 µM
TGI (SR leukemia): 4.6 µM
GI50 (SN12C renal): 1.84 µM
TGI (SN12C renal): 3.71 µM
GI50 (SF-268 CNS): 1.82 µM
TGI (SF-268 CNS): 3.73 µM
GI50 (SNB-19 CNS): 1.95 µM
TGI (SNB-19 CNS): 4.11 µM
GI50 (IGROV1 ovarian): 1.93 µM
TGI (IGROV1 ovarian): 4.04 µM
GI50 (HCT-116 colon): 1.45 µM
TGI (HCT-116 colon): 2.83 µM
GI50 (PC-3 prostate): 1.73 µM
TGI (PC-3 prostate): 3.65 µM
GI50 (KM12 colon): 2.11 µM
TGI (KM12 colon): 4.29 µM
GI50 (LOX IMVI melanoma): 1.66 µM
TGI (LOX IMVI melanoma): 3.17 µM
GI50 (HOP-62 NSCLC): 1.84 µM
TGI (HOP-62 NSCLC): 3.7 µM
GI50 (RXF 393 renal): 1.45 µM
TGI (RXF 393 renal): 2.89 µM
GI50 (SNB-75 CNS): 1.66 µM
TGI (SNB-75 CNS): 4.22 µM
GI50 (SK-MEL-28 melanoma): 1.73 µM
TGI (SK-MEL-28 melanoma): 3.27 µM
GI50 (ACHN renal): 1.72 µM
TGI (ACHN renal): 3.1 µM
GI50 (SK-MEL-2 melanoma): 1.83 µM
TGI (SK-MEL-2 melanoma): 3.33 µM
GI50 (HCT-15 colon): 1.36 µM
TGI (HCT-15 colon): 2.83 µM
GI50 (HL-60(TB) leukemia): 1.71 µM
TGI (HL-60(TB) leukemia): 4.52 µM
GI50 (SF-295 CNS): 1.66 µM
TGI (SF-295 CNS): 3.2 µM
GI50 (NCI-H522 lung): 1.85 µM
TGI (NCI-H522 lung): 3.51 µM
GI50 (UACC-257 melanoma): 1.82 µM
TGI (UACC-257 melanoma): 3.44 µM
GI50 (RPMI-8226 leukemia): 2.03 µM
TGI (RPMI-8226 leukemia): 5.62 µM
GI50 (786-0 renal): 1.55 µM
TGI (786-0 renal): 2.98 µM
GI50 (OVCAR-5 ovarian): 1.83 µM
TGI (OVCAR-5 ovarian): 4.02 µM
GI50 (HT29 colon): 1.27 µM
TGI (HT29 colon): 2.74 µM
GI50 (A498 renal): 1.4 µM
TGI (A498 renal): 2.81 µM
GI50 (UO-31 renal): 1.56 µM
TGI (UO-31 renal): 3.6 µM
GI50 (M14 melanoma): 1.83 µM
TGI (M14 melanoma): 3.3 µM
GI50 (DU-145 prostate): 1.91 µM
TGI (DU-145 prostate): 4.17 µM
GI50 (NCI-H460 lung): 1.58 µM
TGI (NCI-H460 lung): 3.16 µM
GI50 (TK-10 renal): 1.41 µM
TGI (TK-10 renal): 3.45 µM
GI50 (SK-OV-3 ovarian): 1.93 µM
TGI (SK-OV-3 ovarian): 3.47 µM
GI50 (MOLT-4 leukemia): 2.16 µM
TGI (MOLT-4 leukemia): 11 µM
GI50 (OVCAR-8 ovarian): 1.8 µM
TGI (OVCAR-8 ovarian): 3.83 µM
GI50 (CAKI-1 renal): 1.55 µM
TGI (CAKI-1 renal): 3.45 µM
GI50 (COLO 205 colon): 1.79 µM
TGI (COLO 205 colon): 3.27 µM
GI50 (CCRF-CEM leukemia): 2.95 µM
TGI (CCRF-CEM leukemia): 21.6 µM
GI50 (K-562 leukemia): 1.13 µM
TGI (K-562 leukemia): 5.07 µM
GI50 (T-47D breast): 1.61 µM
TGI (T-47D breast): 3.51 µM
GI50 (NCI/ADR-RES ovarian): 2.94 µM
TGI (NCI/ADR-RES ovarian): 9.89 µM
GI50 (SK-MEL-5 melanoma): 1.72 µM
TGI (SK-MEL-5 melanoma): 3.12 µM
GI50 (HCC-2998 colon): 1.75 µM
TGI (HCC-2998 colon): 3.33 µM
GI50 (BT-549 breast): 1.58 µM
TGI (BT-549 breast): 2.95 µM
GI50 (SW-620 colon): 1.86 µM
TGI (SW-620 colon): 3.51 µM
GI50 (MDA-MB-435): 1.77 µM
TGI (MDA-MB-435): 3.34 µM
GI50 (MALME-3M melanoma): 1.67 µM
TGI (MALME-3M melanoma): 3.21 µM
GI50 (U251 CNS): 1.58 µM
TGI (U251 CNS): 2.99 µM
GI50 (SF-539 CNS): 1.73 µM
TGI (SF-539 CNS): 3.27 µM

Reference: PubChem BioAssay (NCI)
